“Also recorded” adds a separate entry of the source.
Legend:
LPS stimulated PBMCs [1] = assay: Cytokine production in LPS stimulated PBMCs; format: cell-based, human; set-up: key to IL-2 / IFNα2 / IFSNβ / IL-4 / IL-5 / IL-6 / IL-10 / IL-13 / IL-15 / IL-17 / IL-22 / IL-1β / IL-1ra / IL-23 / IL-12p40 / IL-12p70 / TNF-α / IFNγ / MCP-1 / GM-CSF / G-CSF: ↑: Induced; —: No change; ↓: Reduced; conditions: for effect on IFN-γ production / effect on IL-12p40 production / effect on IL-12p70 production / effect on IL-23 production / effect on MCP-1 production / effect on TNF-α production: vs DMSO control
Experimental: Peripheral blood mononuclear cells (PBMCs) isolation: Whole blood was received through the Celgene Donor program after informed consent and donor deidentification. All volunteers were healthy and were not on any medications for at least 72 hours prior to the blood draw. Blood was collected in Sodium Heparin tubes and were used within 2 hours of the blood draw for PBMCs isolation. Before PBMCs isolation, whole blood was diluted 1:1 with PBS solution containing 2% FBS (2% FBS-PBS). 13 ml of Ficoll-Paque solution was loaded in the SepMate® tube and 25 ml of diluted blood was loaded on top of the Ficoll-Paque. Centrifugation at 1200 g for 15 minutes with the brake on for cell separation, after which isolated PBMCs were transferred into a new tube. PBMCs were washed with 2% FBS-PBS and centrifuged at 800 g 10 minutes. Pellets were resuspended in 2% FBS-PBS and filtered through a 40 μm cell strainer to obtain single-cell suspension. 3 ml of RBC lysis buffer were used to eliminate red blood cells in the isolated population. Isolated PBMCs were washed with 2% FBS-PBS and were resuspended in RPMI growth medium containing 10% FBS and antibiotics.
For Example 6-11, PBMCs from 9 healthy donors were isolated and LPS-stimulated ex-vivo for IL-23, IL-12p40, IL-12p70, TNF-α, IFN-γ and MCP-1 cytokine analysis. PBMCs were plated in 96 well plate at a density of 200,000 cells per well in 200 μl of RPMI growth medium containing 10% FBS followed by treatment with DMSO and compounds. Each well received the same amount of DMSO, which is 0.3% v/v as final concentration. Series dilutions of compound treatment was performed according to Table 4 shown below. After two hours of compound treatment, LPS 100 ng/ml as final concentration was used as the stimulator. PBMCs were then incubated in a 37° C./5% CO2 incubator for 16 hours.
After 16 hours incubation, supernatants were collected into new 96-well polypropylene plates and centrifuged at 4000 rpm for 10 minutes to get rid of cell debris. Cytokine production was measured by Luminex Bio-Plex Multiplex Immunoassay (Bio-Rad) according to the manufacturer's procedures. To ensure that supernatant level was within the range of the standard cytokine for the assay, samples were diluted 5 fold for IL-12p40 and 27-plex assays, and used neat for IL-23 assay.
Data processing for PBMCs assays was done using Bio-plex manager, and raw data was exported to Excel template for the cytokine analysis. Data was plotted using GraphPad Prism 7.0 (GraphPad Software, Inc., La Jolla, CA) and expressed as % of DMSO control. Statistical analysis was performed using One Way ANOVA and Tukey's multiple comparisons test.
To evaluate the combinatory effect of apremilast and BMS-986165, data from the two independent treatments were analyzed by comparing the combinatory response against the theoretical additive response of the two agents. The expected additive effect of two agents (A and B) was calculated using the fractional product method: (fu)A,B=(fu)A×(fu)B; where fu=fraction unaffected by treatment.

LPS stimulated PBMCs [2] = assay: Viability of LPS stimulated PBMCs; format: cell-based, human; set-up: key: ↑: Induced; —: No change; ↓: Reduced
[3] = tested on: moderate to severe plaque psoriasis; conditions: cited from earlier work

Structure (SMILES)	G-CSF (LPS stimulated PBMCs [1]; LPS stimulated PBMCs)	GM-CSF (LPS stimulated PBMCs [1]; LPS stimulated PBMCs)	IFNα2 (LPS stimulated PBMCs [1]; LPS stimulated PBMCs)	IFNγ (LPS stimulated PBMCs [1]; LPS stimulated PBMCs)	IFSNβ (LPS stimulated PBMCs [1]; LPS stimulated PBMCs)	IL-1ra (LPS stimulated PBMCs [1]; LPS stimulated PBMCs)	IL-1β (LPS stimulated PBMCs [1]; LPS stimulated PBMCs)	IL-2 (LPS stimulated PBMCs [1]; LPS stimulated PBMCs)	IL-4 (LPS stimulated PBMCs [1]; LPS stimulated PBMCs)	IL-5 (LPS stimulated PBMCs [1]; LPS stimulated PBMCs)	IL-6 (LPS stimulated PBMCs [1]; LPS stimulated PBMCs)	IL-10 (LPS stimulated PBMCs [1]; LPS stimulated PBMCs)	IL-12p40 (LPS stimulated PBMCs [1]; LPS stimulated PBMCs)	IL-12p70 (LPS stimulated PBMCs [1]; LPS stimulated PBMCs)	IL-13 (LPS stimulated PBMCs [1]; LPS stimulated PBMCs)	IL-15 (LPS stimulated PBMCs [1]; LPS stimulated PBMCs)	IL-17 (LPS stimulated PBMCs [1]; LPS stimulated PBMCs)	IL-22 (LPS stimulated PBMCs [1]; LPS stimulated PBMCs)	IL-23 (LPS stimulated PBMCs [1]; LPS stimulated PBMCs)	MCP-1 (LPS stimulated PBMCs [1]; LPS stimulated PBMCs)	also measured
[2H]C([2H])([2H])NC(=O)c1nnc(NC(=O)C2CC2)cc1Nc1cccc(-c2ncn(C)n2)c1OC [BMS-986165, 6-(cyclopropanecarboxamido)-4-((2-methoxy-3-(1-methyl-1H-1,2,4-triazol-3-yl)phenyl)amino)-N-(methyl-d3)pyridazine-3-carboxamide]	↑	↑	—	↓	—	↓	—	—	—	—	—	—	↑	↑	↑	—	—	—	↑↑	↓	increase of IL-23 compared to DMSO group (LPS stimulated PBMCs [1]; 0.2 μM-2 μM BMS-986165): 20 fold; TNF-α (LPS stimulated PBMCs [1]; LPS stimulated PBMCs): ↑; effect on IL-12 (LPS stimulated PBMCs [1]; LPS stimulated PBMCs): increased; increase of TNF-α (LPS stimulated PBMCs [1]; LPS stimulated PBMCs, BMS-986165 alone): 1.2-1.5 fold; effect on IFN-γ production (LPS stimulated PBMCs [1]; LPS stimulated PBMCs): decreased; also recorded: reduced; effect on IL-12p40 production (LPS stimulated PBMCs [1]; LPS stimulated PBMCs): increased; also recorded: induced; effect on IL-12p70 production (LPS stimulated PBMCs [1]; LPS stimulated PBMCs): increased; also recorded: induced; effect on IL-23 production (LPS stimulated PBMCs [1]; LPS stimulated PBMCs): induced; also recorded: increased; effect on MCP-1 production (LPS stimulated PBMCs [1]; LPS stimulated PBMCs): decreased; also recorded: reduced; effect on TNF-α production (LPS stimulated PBMCs [1]; LPS stimulated PBMCs): induced; also recorded: increased; Viability (LPS stimulated PBMCs [2]): —; phase 2 clinical trial outcome ([3]; subjects with moderate to severe plaque psoriasis): positive results
CCOc1cc([C@@H](CS(C)(=O)=O)N2C(=O)c3cccc(NC(C)=O)c3C2=O)ccc1OC [Apremilast, N-[2-[(1S)-1-(3-ethoxy-4-methoxyphenyl)-2-(methylsulfonyl)ethyl]-2,3-dihydro-1,3-dioxo-1H-isoindol-4-yl]acetamide]	↑	↓	—	↓	—	—	—	↓	—	—	—	↑	↓	↓	—	—	—	—	↓	↓	TNF-α (LPS stimulated PBMCs [1]; LPS stimulated PBMCs): ↓; effect on IL-12 (LPS stimulated PBMCs [1]; LPS stimulated PBMCs): inhibited; effect on IFN-γ production (LPS stimulated PBMCs [1]; LPS stimulated PBMCs): decreased; also recorded: reduced; effect on IL-12p40 production (LPS stimulated PBMCs [1]; LPS stimulated PBMCs): decreased; effect on IL-12p70 production (LPS stimulated PBMCs [1]; LPS stimulated PBMCs): decreased; effect on IL-23 production (LPS stimulated PBMCs [1]; LPS stimulated PBMCs): decreased; also recorded: inhibited; effect on MCP-1 production (LPS stimulated PBMCs [1]; LPS stimulated PBMCs): decreased; also recorded: reduced; effect on TNF-α production (LPS stimulated PBMCs [1]; LPS stimulated PBMCs): decreased; also recorded: inhibited; Viability (LPS stimulated PBMCs [2]): —; reduction in plaque psoriasis ([3]; achievable in some patients, just over 4 months of treatment): 75%
